Experimental data reported in ChEMBL document CHEMBL5463725, “Data for DCP probe BAY-277” (2023).

What was measured:
[1] = biological target: Nitric oxide synthase, inducible (Homo sapiens) (UniProt P35228); test: Inhibition of Nitric Oxide Synthetase, Inducible (iNOS) at 10.0 µM in the Eurofins Panlabs Safety Screen; conditions: Mus musculus; Compound concentration 10.0 uM
[2] = biological target: D(1A) dopamine receptor (Homo sapiens) (UniProt P21728); conditions: Compound concentration 10.0 uM
Sequence of D(1A) dopamine receptor (Homo sapiens) (P21728 whole entry): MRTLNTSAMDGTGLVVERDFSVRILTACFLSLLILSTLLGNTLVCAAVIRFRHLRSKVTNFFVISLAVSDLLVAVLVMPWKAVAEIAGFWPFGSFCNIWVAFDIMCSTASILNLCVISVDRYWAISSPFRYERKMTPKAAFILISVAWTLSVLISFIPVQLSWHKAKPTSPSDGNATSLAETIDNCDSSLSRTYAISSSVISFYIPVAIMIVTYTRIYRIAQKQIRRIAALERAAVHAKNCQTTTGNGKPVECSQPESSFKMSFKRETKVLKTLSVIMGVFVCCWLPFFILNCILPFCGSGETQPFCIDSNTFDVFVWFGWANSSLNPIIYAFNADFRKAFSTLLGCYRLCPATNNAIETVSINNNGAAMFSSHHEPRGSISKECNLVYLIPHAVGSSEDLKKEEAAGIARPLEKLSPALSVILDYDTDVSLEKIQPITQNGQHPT

[3] = biological target: Thromboxane-A synthase (Homo sapiens) (UniProt P24557); test: Inhibition of Thromboxane Synthase at 10.0 µM in the Eurofins Panlabs Safety Screen; conditions: Compound concentration 10.0 uM
[4] = biological target: 5-hydroxytryptamine receptor 2A (Homo sapiens) (UniProt P28223); test: Inhibition of Serotonin (5-Hydroxytryptamine) 5-HT2A at 10.0 µM in the Eurofins Panlabs Safety Screen; conditions: Compound concentration 10.0 uM
Sequence of 5-hydroxytryptamine receptor 2A (Homo sapiens) (P28223 whole entry): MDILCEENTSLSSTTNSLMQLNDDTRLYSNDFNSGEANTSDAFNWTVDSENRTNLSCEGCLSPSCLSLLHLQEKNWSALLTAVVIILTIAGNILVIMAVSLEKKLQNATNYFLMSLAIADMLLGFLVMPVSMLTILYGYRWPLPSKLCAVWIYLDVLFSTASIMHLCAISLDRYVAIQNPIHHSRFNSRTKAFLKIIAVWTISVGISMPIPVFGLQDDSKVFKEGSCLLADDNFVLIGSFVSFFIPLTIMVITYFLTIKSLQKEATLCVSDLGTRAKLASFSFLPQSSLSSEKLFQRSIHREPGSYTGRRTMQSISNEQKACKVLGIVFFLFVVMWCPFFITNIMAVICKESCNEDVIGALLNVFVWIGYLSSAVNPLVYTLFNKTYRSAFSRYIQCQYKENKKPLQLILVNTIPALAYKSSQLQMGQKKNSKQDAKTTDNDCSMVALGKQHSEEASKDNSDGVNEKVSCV

[5] = biological target: cGMP-inhibited 3',5'-cyclic phosphodiesterase 3A (Homo sapiens) (UniProt Q14432); test: Inhibition of Phosphodiesterase PDE3A at 10.0 µM in the Eurofins Panlabs Safety Screen; conditions: Compound concentration 10.0 uM
[6] = biological target: Beta-2 adrenergic receptor (Homo sapiens) (UniProt P07550); conditions: Compound concentration 10.0 uM
Sequence of Beta-2 adrenergic receptor (Homo sapiens) (P07550 whole entry, looked up): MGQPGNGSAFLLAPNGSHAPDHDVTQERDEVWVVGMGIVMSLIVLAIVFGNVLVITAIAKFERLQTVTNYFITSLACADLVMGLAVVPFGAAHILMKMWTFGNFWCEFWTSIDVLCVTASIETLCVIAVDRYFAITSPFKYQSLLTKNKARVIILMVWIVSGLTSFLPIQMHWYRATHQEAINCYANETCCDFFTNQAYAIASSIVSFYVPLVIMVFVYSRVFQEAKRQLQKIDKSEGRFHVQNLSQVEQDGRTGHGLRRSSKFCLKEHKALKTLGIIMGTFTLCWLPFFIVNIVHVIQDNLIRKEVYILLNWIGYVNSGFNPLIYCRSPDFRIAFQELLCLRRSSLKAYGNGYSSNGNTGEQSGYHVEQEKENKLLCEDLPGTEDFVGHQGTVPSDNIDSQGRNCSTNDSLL

[7] = biological target: Muscarinic acetylcholine receptor M5 (Homo sapiens) (UniProt P08912); conditions: Compound concentration 10.0 uM
Sequence of Muscarinic acetylcholine receptor M5 (Homo sapiens) (P08912 whole entry): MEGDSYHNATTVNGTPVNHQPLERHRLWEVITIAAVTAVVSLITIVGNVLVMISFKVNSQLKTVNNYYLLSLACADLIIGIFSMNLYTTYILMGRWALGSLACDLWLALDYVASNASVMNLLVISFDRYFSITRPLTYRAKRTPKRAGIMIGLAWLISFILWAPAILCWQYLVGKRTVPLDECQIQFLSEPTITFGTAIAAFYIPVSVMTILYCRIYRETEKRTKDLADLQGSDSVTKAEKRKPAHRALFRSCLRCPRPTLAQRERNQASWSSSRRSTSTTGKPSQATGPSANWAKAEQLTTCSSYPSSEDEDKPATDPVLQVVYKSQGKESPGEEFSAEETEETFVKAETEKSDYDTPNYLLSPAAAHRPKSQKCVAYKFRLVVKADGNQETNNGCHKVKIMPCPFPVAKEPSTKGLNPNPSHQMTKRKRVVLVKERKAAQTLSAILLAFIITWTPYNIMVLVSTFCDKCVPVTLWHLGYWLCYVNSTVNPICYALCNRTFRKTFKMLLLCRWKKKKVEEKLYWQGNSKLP

[8] = biological target: Muscarinic acetylcholine receptor M3 (Homo sapiens, UniProt P20309); test: GPCRScan assay: inhibition of M3; parameters: radioligand conc. used [nm] 0.3 – 1.0, parental cells stable CHO
Sequence of Muscarinic acetylcholine receptor M3 (P20309 whole entry): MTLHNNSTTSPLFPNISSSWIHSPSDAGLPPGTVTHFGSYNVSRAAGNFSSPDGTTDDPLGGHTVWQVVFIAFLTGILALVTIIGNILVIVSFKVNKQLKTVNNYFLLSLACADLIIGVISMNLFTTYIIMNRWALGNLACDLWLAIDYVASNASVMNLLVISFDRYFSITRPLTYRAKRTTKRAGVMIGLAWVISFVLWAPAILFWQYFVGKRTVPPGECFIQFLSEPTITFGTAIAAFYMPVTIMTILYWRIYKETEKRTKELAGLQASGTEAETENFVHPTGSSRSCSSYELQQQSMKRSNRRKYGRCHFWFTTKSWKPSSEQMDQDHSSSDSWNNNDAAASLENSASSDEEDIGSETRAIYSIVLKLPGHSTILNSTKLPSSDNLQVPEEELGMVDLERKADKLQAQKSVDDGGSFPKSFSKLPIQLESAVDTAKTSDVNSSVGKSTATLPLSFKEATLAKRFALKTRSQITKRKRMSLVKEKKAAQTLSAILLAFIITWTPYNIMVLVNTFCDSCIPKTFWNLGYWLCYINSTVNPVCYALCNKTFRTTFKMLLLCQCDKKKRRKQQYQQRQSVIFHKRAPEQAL

[9] = biological target: T1, Muscarinic acetylcholine receptor M4 (Homo sapiens) (UniProt P08173); conditions: Compound concentration 10.0 uM
T1 sequence (whole entry): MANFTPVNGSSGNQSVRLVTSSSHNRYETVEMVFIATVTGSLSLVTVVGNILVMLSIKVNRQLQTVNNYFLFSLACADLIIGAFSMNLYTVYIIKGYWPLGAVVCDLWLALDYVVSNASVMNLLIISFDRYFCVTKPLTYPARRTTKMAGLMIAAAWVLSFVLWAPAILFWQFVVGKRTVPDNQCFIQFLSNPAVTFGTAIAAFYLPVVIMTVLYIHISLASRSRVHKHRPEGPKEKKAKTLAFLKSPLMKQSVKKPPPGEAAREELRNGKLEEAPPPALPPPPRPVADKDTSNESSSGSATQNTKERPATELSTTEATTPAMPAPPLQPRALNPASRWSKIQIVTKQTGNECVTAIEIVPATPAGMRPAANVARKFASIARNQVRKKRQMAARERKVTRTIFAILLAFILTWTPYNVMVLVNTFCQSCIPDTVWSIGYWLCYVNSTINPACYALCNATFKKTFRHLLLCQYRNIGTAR

[10] = biological target: Insulin receptor (Homo sapiens) (UniProt P06213); test: Inhibition of Insulin at 10.0 µM in the Eurofins Panlabs Safety Screen; conditions: Rattus norvegicus; Compound concentration 10.0 uM
[11] = biological target: Kappa-type opioid receptor (Homo sapiens) (UniProt P41145); conditions: Compound concentration 10.0 uM
Sequence of Kappa-type opioid receptor (Homo sapiens) (P41145 whole entry): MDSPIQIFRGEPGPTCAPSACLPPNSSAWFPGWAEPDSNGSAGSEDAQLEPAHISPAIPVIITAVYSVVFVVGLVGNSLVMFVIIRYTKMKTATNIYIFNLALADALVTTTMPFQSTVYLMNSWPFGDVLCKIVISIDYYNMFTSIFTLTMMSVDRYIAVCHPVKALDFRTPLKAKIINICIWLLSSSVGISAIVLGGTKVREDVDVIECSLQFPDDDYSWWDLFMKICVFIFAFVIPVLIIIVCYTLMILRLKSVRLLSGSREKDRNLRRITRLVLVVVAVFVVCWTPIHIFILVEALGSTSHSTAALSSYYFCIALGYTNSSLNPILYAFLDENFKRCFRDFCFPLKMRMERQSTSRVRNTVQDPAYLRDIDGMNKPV

[12] = biological target: Kappa-type opioid receptor (Homo sapiens) (UniProt P41145); test: Inhibition of Opiate kappa(OP2, KOP) at 10.0 µM in the Eurofins Panlabs Safety Screen; conditions: Compound concentration 10.0 uM
[13] = biological target: Sigma intracellular receptor 2 (Homo sapiens, UniProt Q5BJF2); test: GPCRScan assay: inhibition of Sigma 2; parameters: radioligand conc. used [nm] 5.0, parental cells HEKT
Sequence of Sigma intracellular receptor 2 (Q5BJF2 whole entry): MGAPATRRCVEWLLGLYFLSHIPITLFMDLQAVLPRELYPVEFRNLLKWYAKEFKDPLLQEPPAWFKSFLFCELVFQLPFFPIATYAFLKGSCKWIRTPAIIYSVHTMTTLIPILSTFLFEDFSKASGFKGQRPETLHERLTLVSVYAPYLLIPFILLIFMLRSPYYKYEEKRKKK

[14] = biological target: Sodium-dependent serotonin transporter (Homo sapiens) (UniProt P31645); conditions: Compound concentration 10.0 uM
[15] = biological target: 5-hydroxytryptamine receptor 1D (Homo sapiens) (UniProt P28221); conditions: Compound concentration 10.0 uM
Sequence of 5-hydroxytryptamine receptor 1D (Homo sapiens) (P28221 whole entry): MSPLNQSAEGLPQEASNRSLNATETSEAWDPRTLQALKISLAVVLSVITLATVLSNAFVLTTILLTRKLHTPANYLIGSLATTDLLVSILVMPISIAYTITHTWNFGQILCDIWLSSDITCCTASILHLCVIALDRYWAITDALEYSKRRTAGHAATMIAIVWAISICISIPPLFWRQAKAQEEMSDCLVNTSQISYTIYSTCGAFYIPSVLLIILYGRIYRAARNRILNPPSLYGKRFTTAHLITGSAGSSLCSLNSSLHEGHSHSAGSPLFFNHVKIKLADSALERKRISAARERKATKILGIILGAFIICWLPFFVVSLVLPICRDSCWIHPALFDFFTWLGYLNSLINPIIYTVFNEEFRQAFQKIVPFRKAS

[16] = biological target: 5-hydroxytryptamine receptor 7 (Homo sapiens) (UniProt P34969); conditions: Compound concentration 10.0 uM
Sequence of 5-hydroxytryptamine receptor 7 (Homo sapiens) (P34969 whole entry): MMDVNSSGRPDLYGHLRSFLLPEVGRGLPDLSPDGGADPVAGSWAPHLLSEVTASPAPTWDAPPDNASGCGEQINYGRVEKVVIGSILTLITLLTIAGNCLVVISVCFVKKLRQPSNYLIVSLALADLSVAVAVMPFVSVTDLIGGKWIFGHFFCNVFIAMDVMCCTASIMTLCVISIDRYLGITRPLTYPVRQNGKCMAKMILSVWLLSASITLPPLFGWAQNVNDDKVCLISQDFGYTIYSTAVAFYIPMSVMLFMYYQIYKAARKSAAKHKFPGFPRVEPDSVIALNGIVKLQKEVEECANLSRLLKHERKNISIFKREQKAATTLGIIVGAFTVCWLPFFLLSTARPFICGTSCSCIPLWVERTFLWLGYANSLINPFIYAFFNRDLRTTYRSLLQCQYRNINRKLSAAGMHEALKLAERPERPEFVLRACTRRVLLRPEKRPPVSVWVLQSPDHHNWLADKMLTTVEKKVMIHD

[17] = biological target: Glutamate receptor ionotropic, kainate 2 (Homo sapiens) (UniProt Q13002); test: Inhibition of Glutamate, Kainate at 10.0 µM in the Eurofins Panlabs Safety Screen; conditions: Rattus norvegicus; Compound concentration 10.0 uM
[18] = biological target: D(1A) dopamine receptor (Homo sapiens) (UniProt P21728); test: Inhibition of Dopamine D1 at 10.0 µM in the Eurofins Panlabs Safety Screen; conditions: Compound concentration 10.0 uM
[19] = biological target: T2, Alpha-2B adrenergic receptor (Homo sapiens) (UniProt P18089); conditions: Compound concentration 10.0 uM
T2 sequence (whole entry): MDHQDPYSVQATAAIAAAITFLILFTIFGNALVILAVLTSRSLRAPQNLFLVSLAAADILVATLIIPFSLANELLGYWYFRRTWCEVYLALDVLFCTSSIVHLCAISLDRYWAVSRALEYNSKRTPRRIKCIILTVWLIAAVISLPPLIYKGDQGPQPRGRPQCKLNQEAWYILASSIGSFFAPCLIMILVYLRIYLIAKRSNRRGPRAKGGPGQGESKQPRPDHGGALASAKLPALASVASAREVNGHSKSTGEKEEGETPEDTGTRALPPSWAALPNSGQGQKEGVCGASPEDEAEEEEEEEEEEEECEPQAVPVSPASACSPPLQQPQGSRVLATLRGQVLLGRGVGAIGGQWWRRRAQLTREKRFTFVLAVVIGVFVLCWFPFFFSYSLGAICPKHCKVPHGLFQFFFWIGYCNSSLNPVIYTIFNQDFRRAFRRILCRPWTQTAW

[20] = biological target: Serine/threonine-protein kinase haspin (Homo sapiens) (UniProt Q8TF76); test: Inhibition of Haspin(h) at 10.0 µM in the Eurofins Kinase panel; conditions: Compound concentration 10.0 uM
[21] = biological target: Glutamate receptor 2 (Homo sapiens) (UniProt P42262); test: Inhibition of Glutamate, AMPA at 10.0 µM in the Eurofins Panlabs Safety Screen; conditions: Rattus norvegicus; Compound concentration 10.0 uM
[22] = biological target: Sodium-dependent dopamine transporter (Homo sapiens, UniProt Q01959); test: GPCRScan assay: inhibition of DAT; parameters: radioligand conc. used [nm] 3.6 – 16.0, parental cells stable HEK
Sequence of Sodium-dependent dopamine transporter (Q01959 whole entry): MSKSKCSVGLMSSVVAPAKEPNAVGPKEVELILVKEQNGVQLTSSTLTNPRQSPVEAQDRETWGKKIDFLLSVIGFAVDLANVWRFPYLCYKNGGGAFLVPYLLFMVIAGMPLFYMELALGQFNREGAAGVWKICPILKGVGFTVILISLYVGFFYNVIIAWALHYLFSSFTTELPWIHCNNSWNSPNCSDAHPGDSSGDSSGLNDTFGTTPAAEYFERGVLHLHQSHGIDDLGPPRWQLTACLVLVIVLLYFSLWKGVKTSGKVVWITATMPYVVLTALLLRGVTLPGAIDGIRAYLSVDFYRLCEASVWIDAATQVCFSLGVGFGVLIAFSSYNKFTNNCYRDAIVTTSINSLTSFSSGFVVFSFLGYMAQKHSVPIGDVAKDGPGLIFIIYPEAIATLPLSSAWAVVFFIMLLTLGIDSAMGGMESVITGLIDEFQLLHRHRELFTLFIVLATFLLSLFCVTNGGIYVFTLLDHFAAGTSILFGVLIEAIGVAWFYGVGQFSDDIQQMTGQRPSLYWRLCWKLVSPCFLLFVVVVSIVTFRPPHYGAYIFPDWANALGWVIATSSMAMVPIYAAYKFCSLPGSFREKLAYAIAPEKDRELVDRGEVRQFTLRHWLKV

[23] = biological target: Delta-type opioid receptor (Homo sapiens) (UniProt P41143); conditions: Compound concentration 10.0 uM
Sequence of Delta-type opioid receptor (Homo sapiens) (P41143 whole entry): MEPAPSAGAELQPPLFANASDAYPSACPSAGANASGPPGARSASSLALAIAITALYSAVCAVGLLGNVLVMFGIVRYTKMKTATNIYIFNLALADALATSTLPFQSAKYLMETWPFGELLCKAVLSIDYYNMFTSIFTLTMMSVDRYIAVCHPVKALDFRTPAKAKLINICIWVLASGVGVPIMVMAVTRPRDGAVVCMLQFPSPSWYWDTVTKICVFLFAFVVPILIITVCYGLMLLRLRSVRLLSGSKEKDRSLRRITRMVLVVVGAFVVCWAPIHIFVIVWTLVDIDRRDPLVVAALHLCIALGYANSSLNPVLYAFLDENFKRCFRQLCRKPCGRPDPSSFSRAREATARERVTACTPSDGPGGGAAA

[24] = biological target: T3, Alpha-2A adrenergic receptor (Homo sapiens) (UniProt P08913); conditions: Compound concentration 10.0 uM
T3 sequence (whole entry): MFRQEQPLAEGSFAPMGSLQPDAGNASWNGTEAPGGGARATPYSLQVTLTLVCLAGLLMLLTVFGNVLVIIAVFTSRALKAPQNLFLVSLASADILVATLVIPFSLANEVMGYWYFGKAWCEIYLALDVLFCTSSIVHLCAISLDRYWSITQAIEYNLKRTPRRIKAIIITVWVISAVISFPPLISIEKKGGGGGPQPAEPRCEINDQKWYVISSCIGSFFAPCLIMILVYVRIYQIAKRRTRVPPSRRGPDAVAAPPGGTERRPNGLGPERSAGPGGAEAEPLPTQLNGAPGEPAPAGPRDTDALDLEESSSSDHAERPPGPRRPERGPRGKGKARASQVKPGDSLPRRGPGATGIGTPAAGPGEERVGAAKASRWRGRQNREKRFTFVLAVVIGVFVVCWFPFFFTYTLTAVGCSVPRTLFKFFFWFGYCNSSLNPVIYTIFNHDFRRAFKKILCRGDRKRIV

SMILES | inhibition [1] [%] | inhibition [2] [%] | inhibition [3] [%] | inhibition [4] [%] | inhibition [5] [%] | inhibition [6] [%] | inhibition [7] [%] | Ki ([8]; read-out: Ki) [nM] | Ki ([8]; read-out: pKi (converted)) [nM] | inhibition [9] [%] | inhibition [10] [%] | inhibition [11] [%] | inhibition [12] [%] | Ki ([13]; read-out: Ki) [nM] | Ki ([13]; read-out: pKi (converted)) [nM] | inhibition [14] [%] | inhibition [15] [%] | inhibition [16] [%] | inhibition [17] [%] | inhibition [18] [%] | further results
O=C1NCCCC1N1Cc2cc(C3CCN(C(=O)CCCCCN4CCC(c5ccc(Oc6nn7cnnc7c7c6CCCC7)cc5)CC4)CC3)ccc2C1=O (centres undefined) | -3 | 8.56 | 23 | 39 | 6 | -7.69 | 41.8 | 1890 | 1860 | 76.1 | -5 | 29.3 | 35 | 1140 | 977 | 9.58 | 37.4 | 32.5 | 1 | 20 | inhibition [19]: 8.66%; inhibition [20]: 26%; inhibition [21]: 3%; Ki ([22]; read-out: Ki): 4810 nM; Ki ([22]; read-out: pKi (converted)): 4470 nM; inhibition [23]: 19.5%; inhibition [24]: 29.3%
O=C1CCC(N2Cc3cc(C4CCN(C(=O)CCCCCN5CCC(c6ccc(Oc7nn8cnnc8c8c7CCCC8)cc6)CC5)CC4)ccc3C2=O)C(=O)N1 (centres undefined) | 0 | 5.21 | 10 | 35 | 6 | 2.82 | 71 | 2260 | 2090 | 83.5 | -7 | 27.6 | 18 | 867 | 832 | 45.8 | 48.5 | 36.8 | -2 | 16 | inhibition [19]: 8.76%; inhibition [20]: 28.6%; inhibition [21]: 0%; Ki ([22]; read-out: Ki): 3730 nM; Ki ([22]; read-out: pKi (converted)): 3390 nM; inhibition [23]: 17.5%; inhibition [24]: 33.1%
